In a compilation of properties of binary mixtures (doi:10.1016/j.molliq.2022.121069):

Experiment: xn = mol fraction of the nth substance listed
Conditions: 101.3 kPa

CCCC[N+](CCCC)(CCCC)CCCC.[Cl-] + CNCCO
Conditions	speed of sound, x1 = 0.091 [m/s]	speed of sound, x1 = 0.111 [m/s]	speed of sound, x1 = 0.1441 [m/s]	viscosity, x1 = 0.091 [mPa·s]	viscosity, x1 = 0.111 [mPa·s]	viscosity, x1 = 0.1441 [mPa·s]
293.15 K	–	1516.6	1521.4	–	34.4	47.4
298.15 K	–	–	1505.8	–	–	34.3
303.15 K	1482	1485.3	–	18.5	20.8	–
308.15 K	1466.3	1469.8	–	15.1	16.8	–
313.15 K	1450.5	1454.2	–	12.7	14.1	–
318.15 K	–	1438.9	1443.8	–	11.6	14.1
323.15 K	1419.5	1423.6	1428.6	8.93	9.5	11.8
328.15 K	1404.1	–	1413.5	7.38	–	10.3
333.15 K	1388.5	1393.1	1398.5	6.48	6.5	9.58

CC[N+](CC)(CC)CC.[Cl-] + CNCCO
Conditions	speed of sound, x1 = 0.0914 [m/s]	speed of sound, x1 = 0.1114 [m/s]	speed of sound, x1 = 0.1413 [m/s]	viscosity, x1 = 0.0914 [mPa·s]	viscosity, x1 = 0.1114 [mPa·s]	viscosity, x1 = 0.1413 [mPa·s]
293.15 K	1553.4	1565.5	–	20.5	21.9	–
298.15 K	1538	1550.1	1565.6	16.7	17.4	18.8
303.15 K	1522.5	–	1550.1	13.5	–	15.2
308.15 K	–	1519.5	1534.7	–	11.5	12.4
313.15 K	1491.9	1504.6	–	9.57	10	–
318.15 K	1476.9	1489.4	–	7.92	8.35	–
323.15 K	1461.5	–	–	6.5	–	–
328.15 K	–	1458.8	1473.8	–	5.78	6.23
333.15 K	1431	1444.6	1458.7	4.57	4.95	5.41
